Reference: paper PMC7996082, “The translocator protein ligands as mitochondrial functional modulators for the potential anti-Alzheimer agents” (Journal of Enzyme Inhibition and Medicinal Chemistry, 2021)
pIC50, pKi: −log10 of the molar value. Where two headings read alike, the source gives them in different places.

What was measured:
[1] = system: HT22 cells treated with Aβ; assay: Cellular ROS assay (DCFDA): inhibition of Aβ-induced ROS generation; assay type: cell-based, mouse; conditions: for ROS Inhibition (%): 5 μM compound; for inhibition at 5 µM: Mus musculus, HT-22, 5 μM compound
Protocol: Among 56 compounds, 23 compounds were selected and further tested for the luciferase-based ATP assay. […] Thus, we chose these two compounds and further evaluated their biological activity by measuring cell viability and reactive oxygen species (ROS) production. The effects on cell viability of each compound under Aβ-induced cytotoxicity were determined by measuring the metabolic activity of NAD(P)H-dependent cellular oxidoreductases using the 3–(4,5-dimethylthiazol-2-yl)-2,5-diphenyl-tetrazolium bromide (MTT) dye. To measure cellular ROS levels, we used a fluorescence indicator, 2′,7′-dichlorofluorescein diacetate (DCFDA), and calculated the percent inhibition of ROS generation by applying the same method used for MTT assays. Compound 7 inhibited Aβ-induced ROS generation (97% at 5 µM) almost to the level of the untreated control (Table 1). […] On the basis of the in vitro activity, we selected compound 7 as the best hit from the initial screening library.

TSPO = conditions: cited from earlier work
[2] = system: transgenic AD model mice (APPswe/PSEN1dE9); assay: Y-maze spontaneous alternation test in transgenic AD model mice; assay type: in vivo, mouse; conditions: Tg APPswe/PSEN1dE9 mice, 30 mg/kg daily, 1 month, PO
[3] = MTT assay: HT22 cell viability with compound alone; assay type: cell-based, mouse; conditions: mouse, HT22 cells; HT22 cell viability after 24 h of treatment with 5 μM compound, no Aβ
Protocol: (§1) To a clear 96-well plate (FALCON), the cultured HT-22 cells were seeded in a number of 5,000 per well 24 h prior to the assay. A solution of each test compound (5 µM, 25 µL) was added to each well. After 24 h of incubation at 37 °C, the cells were treated with a 10 µL of MTT solution (3–(4,5-dimethylthiazol-2-yl)-2,5-diphenyltetrazolium bromide, Sigma-Aldrich), incubated for 2 h at 37 °C, and were treated with 135 µL of MTT solubilising solution (10% Triton-X 100 in isopropanol with 0.1 M HCl) for 2 h at 37 °C. The % values of cell viability were determined by using the optical density (OD) values at 560 nm, and normalised by taking the vehicle control (5 µM of DMSO) as […].

[4] = system: transgenic AD model mice (APPswe/PSEN1dE9); assay: Contextual fear conditioning test in transgenic AD model mice; assay type: in vivo, mouse; conditions: Tg AD model mice, 30 mg/kg daily, 1 month, PO; 30 mg/kg
Protocol: (§2) The acute AD mice model was prepared by administration of Aβ1-42 solution (10% DMSO/90% PBS) to male ICR mice (6 weeks old, 30 − 33 g) via intracerebroventricular (ICV) injection (Aβ1-42 dose: 500 pmol/mouse) as described previously. The wild type mice (B6C3F1) and double APP/PS1 transgenic mice (Tg AD mice model; APPswe/PSEN1dE9) were purchased from Jackson Laboratory (Bar Harbour, ME, USA). The Tg AD model mice were 11 months old at the beginning of the behaviour test, and were housed for 1 month in a room under controlled temperature and fed ad libitum. The behaviour tests were conducted during daytime in air-controlled and soundproof experiment room. The animal experiments were abided by the guidelines of the Institutional Animal Care and Use Committee of Korea Institute of Science and Technology.
To the Tg mice of the AD model (n = 7 per group), each test compound (30 mg/kg) was orally administrated daily for 1 month. […] Freezing response was measured by the fear conditioning system without application of CS or US.
In addition, we assessed recovery effects of compound 7 by performing contextual fear conditioning tests.[40] Healthy mice show higher number of total freezing, which is an index of fear learning and memory of rodents; therefore, the number of total freezing responses under fear-relevant stimuli was measured with the compound-treated Tg AD model mice. […]

[5] = system: acute AD model mice (Aβ1-42 ICV injected ICR mice); assay: Y-maze spontaneous alternation test in acute AD model mice; assay type: in vivo, mouse; conditions: 30 mg/kg daily, 6 days, i.p.
Protocol: as §2
To the mice of the acute AD model (n = 7 per group), each test compound (test compound in 20% cyclodextrin, 30 mg/kg) was […] injected daily for 6 days. The Y-maze spontaneous alternation test was performed 1 day after the administration of each test compound. The Y maze was made of three equally spaced black plastic arms (40 L × 10 W × 12 H cm) positioned at an equal angle. Each mouse was placed at the end of one arm and allowed to move freely through the maze for 8 min, and the sequence of arm entries was recorded. The arm entry of the mouse was counted when the all four limbs were within an arm. A set of entries into all three arms is considered as a spontaneous alternation. The spontaneous alternation (%) was calculated by the following equation: Spontaneous alternation (%)=100x[number of alternations/(total number of arm entries – 2)]
We evaluated in vivo activity of 7 and 14 in an acute AD mouse model. The acute AD model mice were generated by the administration of Aβ1-42 peptide (500 pmol) according to the previously reported method, and each compound (30 mg/kg daily) was administered intraperitoneally for 6 days. Piracetam (30 mg/kg daily) was also administered in parallel for comparison. The Y-maze spontaneous alternation tests were performed to measure the recovery of learning and memory deficit in acute AD model mice[38]^,[39]. […] We believe that the treatment of 7 was beneficial for ameliorating Aβ-induced cognitive impairments.

[6] = system: HT-22 (mouse hippocampal cells) cells treated with Aβ; assay: JC-1 assay: recovery of mitochondrial membrane potential (ΔΨm) after Aβ; assay type: cell-based; conditions: 5 μM compound, 5 μM Aβ, HT22 cells; 0% = Aβ-induced damaged condition, 100% = normal condition
Protocol: Thirty thousand HT-22 cells per well were seeded into a clear 96-well plate (FALCON) at 200 µL per well one day prior to assay. 750 mM of JC-1 (Stratagene) in DMSO stock solution was dissolved into phenol red-free Opti-MEM (GIBCO) medium to make final concentration of 7.5 mM JC-1 per well. Medium was removed from the plate, and 100 µL per well of JC-1 was added. The sample plates were incubated for 1 h and 15 min at 37 °C and washed twice with 100 µL per well of PBS. Subsequently, cells were treated with a 25 µL solution of each compound at 10 µM in Opti-MEM and incubated at 37 °C for 10 min followed by addition of a 25 µL of Aβ (American peptide, 1-42) solution at 10 µM. Fluorescence was measured at every one hour for three hours at ex/em 530 nm/580 nm (“red”) and ex/em 485 nm/530 nm (“green”) by using the Flexstation® 3 (Molecular Devices, USA) reader. The ratio of green to red fluorescence was calculated and normalised by taking the percent changes using vehicle control as 100%.
The selected 56 compounds were purchased and tested by in vitro cell-based assays. Four different cell-based assays (JC-1, MTT, ATP production, and cellular ROS assays) were carried out sequentially. First, the JC-1 assay was performed to screen all 56 compounds, VH001–VH056 (Supplementary Table S1). Since mitochondrial membrane depolarisation is one of the distinct signs of mPTP opening, the mitochondrial uptake of a fluorescent JC-1 dye (5,59,6,69-tetrachloro-1,19,3,39-tetraethylbenzimidazolocarbocyanine iodide) was measured to evaluate the effects of each compound on the mitochondrial membrane potential (ΔΨm). HT22 cells, a mouse hippocampal cell line, were treated with 5 µM of Aβ, incubated with each compound at the same concentration of 5 µM, and subsequently treated with JC-1. On the basis of changes in the red/green fluorescence intensity ratio between the cells treated with Aβ and control, the percent recovery of ΔΨm for each compound was calculated and normalised to the ΔΨm of healthy cells as 100%.
Compd Structure ∆Ψm at 5 Compd Structure ∆Ψm at 5 […]
a After the treatment of each compound (5 μM) and Aβ (5 μM) in HT22 cell, the increase of fluorescence ratio (green/red) was measured and normalized by taking the change of the ratio between 0% (Aβ-induced damaged condition) and 100% (normal condition in the absence of Aβ).

HT22 cells = assay: MTT assay: HT22 cell viability with compound alone; assay type: cell-based, mouse; conditions: HT22 cell viability after 24 h of treatment with 5 μM compound, no Aβ
Protocol: as §1

With `CCOc1ccc(-n2c(SCC(C)C)nc3sc4c(c3c2=O)CCN(C(C)=O)C4)cc1` [Compound 11] the “ROS Inhibition (%)” value [1] was −234%.
For `CC(=O)N(Cc1ccccc1OC(C)C)c1ccc(Cl)cc1Oc1ccccc1` [Compound 3, N-(4-chloro-2-phenoxyphenyl)-N-(2-isopropoxybenzyl)acetamide], the pIC50 (TSPO; TSPO binding affinity ref 31) is listed as 9.04.
With `NC(=O)CN1CCCC1=O` [Piracetam, piracetam, reference compound] the “Recovery of Y-maze spontaneous alternations” value [2] was 33%, the viability at 24 h, 5 µM [3] was 132% and the “Contextual fear conditioning: percent recovery of freezing” value [4] was −2%. For the same compound, the inhibition at 5 µM [1] was 129% and the “Recovery of Y-maze spontaneous alternations” value [5] was 20%.
In the case of `CCCCCCN(CCCCCC)C(=O)Cc1c(-c2ccc(F)cc2)[nH]c2ccccc12` [Compound 1, 2–(2-(4-fluorophenyl)-1H-indol-3-yl)-N,N-dihexylacetamide], the pKi (TSPO; TSPO binding affinity ref 29) is given as 8.49.
For `CCCCN(CCCC)C(=O)Cc1c(-c2ccc(Cl)cc2)nc2c(Cl)cc(Cl)cn12` [Compound 2, N,N-dibutyl-2–(6,8-dichloro-2–(4-chloro-phenyl)imidazo[1,2-a]pyridin-3-yl)acetamide], the pKi (TSPO; TSPO binding affinity ref 30) is given as 8.57.
For `CCOc1ccc(-c2cc(C(=O)NCCCN(CC)CC)c3ccccc3n2)cc1` [VH022], the “Recovery of ΔΨm (%)” value [6] was 36%.
With `CC(C)CN(CCCNC(=O)c1cc(Nc2ccccc2)nc2ccccc12)CC(C)C` [VH027] the “Recovery of ΔΨm (%)” value [6] was 25%.
In the case of `COc1ccc(CNC(=O)c2cc(OCc3ccc(C)cc3)nc3ccccc23)c(OC)c1` [VH028], the “Recovery of ΔΨm (%)” value [6] was 51%.
For `CCOc1ccc(-c2cc(C(=O)NCCCN(CC)c3ccccc3)c3ccccc3n2)cc1` [VH024], the “Recovery of ΔΨm (%)” value [6] was 74%.
For `CCN(CCNC(=O)c1cc(-c2cccnc2)nc2ccccc12)c1ccccc1` [VH026], the “Recovery of ΔΨm (%)” value [6] was 49%.
In the case of `CN1C(=O)CN=C(c2ccc(Cl)cc2)c2cc(Cl)ccc21` [Compound 5, 7-chloro-5–(4-chlorophenyl)-1-methyl-1,3-dihydro-2H-benzo[e][1,4]diazepin-2-one], the pKi (TSPO; TSPO binding affinity ref 32) is given as 8.99.
For `CCOc1ccc(-c2cc(C(=O)NCC(C)CN(CC)CC)c3ccccc3n2)cc1` (stereo not shown) [VH030], the “Recovery of ΔΨm (%)” value [6] was 60%.
Work on `COc1ccc(CNC(=O)C(c2cccnc2)N(C(=O)c2csnn2)c2ccc(C(C)(C)C)cc2)cc1` (stereo not shown) [Compound 8] yielded a viability at 24 h, 5 µM [3] of 34% and an inhibition at 5 µM [1] of -10%.
For `CCOc1ccc(-n2c(SC)nc3sc4c(c3c2=O)CCN(C(C)=O)C4)cc1` [Compound 10], the “MTT Viability (%)” value (HT22 cells) was 87% and the “ROS Inhibition (%)” value [1] was −177%.
In the case of `COc1ccc(OC)c(CN(C(C)=O)c2cc(F)ccc2Oc2ccccc2)c1` [Compound 4, N-(2,5-dimethoxybenzyl)-N-(5-fluoro-2-phenoxyphenyl)acetamide], the pIC50 (TSPO; TSPO binding affinity ref 31) is given as 8.80.
